# Measurements published in patent US20030175810A1, “Assay method and system for identification of P2Y receptor agonists and antagonists” (priority 2000, published 2003).
# B1: Phospholipase C-β1: phospholipase C-β isoenzyme stimulating GTPase activity of Gαq (protein, UniProt Q9NQ66 1-1216, looked up)
# 1-phosphatidylinositol …: MAGAQPGVHALQLKPVCVSDSLKKGTKFVKWDDDSTIVTPIILRTDPQGFFFYWTDQNKETELLDLSLVKDARCGRHAKAPKDPKLRELLDVGNIGRLEQRMITVVYGPDLVNISHLNLVAFQEEVAKEWTNEVFSLATNLLAQNMSRDAFLEKAYTKLKLQVTPEGRIPLKNIYRLFSADRKRVETALEACSLPSSRNDSIPQEDFTPEVYRVFLNNLCPRPEIDNIFSEFGAKSKPYLTVDQMMDFINLKQRDPRLNEILYPPLKQEQVQVLIEKYEPNNSLARKGQISVDGFMRYLSGEENGVVSPEKLDLNEDMSQPLSHYFINSSHNTYLTAGQLAGNSSVEMYRQVLLSGCRCVELDCWKGRTAEEEPVITHGFTMTTEISFKEVIEAIAECAFKTSPFPILLSFENHVDSPKQQAKMAEYCRLIFGDALLMEPLEKYPLESGVPLPSPMDLMYKILVKNKKKSHKSSEGSGKKKLSEQASNTYSDSSSMFEPSSPGAGEADTESDDDDDDDDCKKSSMDEGTAGSEAMATEEMSNLVNYIQPVKFESFEISKKRNKSFEMSSFVETKGLEQLTKSPVEFVEYNKMQLSRIYPKGTRVDSSNYMPQLFWNAGCQMVALNFQTMDLAMQINMGMYEYNGKSGYRLKPEFMRRPDKHFDPFTEGIVDGIVANTLSVKIISGQFLSDKKVGTYVEVDMFGLPVDTRRKAFKTKTSQGNAVNPVWEEEPIVFKKVVLPTLACLRIAVYEEGGKFIGHRILPVQAIRPGYHYICLRNERNQPLTLPAVFVYIEVKDYVPDTYADVIEALSNPIRYVNLMEQRAKQLAALTLEDEEEVKKEADPGETPSEAPSEARTTPAENGVNHTTTLTPKPPSQALHSQPAPGSVKAPAKTEDLIQSVLTEVEAQTIEELKQQKSFVKLQKKHYKEMKDLVKRHHKKTTDLIKEHTTKYNEIQNDYLRRRAALEKSAKKDSKKKSEPSSPDHGSSTIEQDLAALDAEMTQKLIDLKDKQQQQLLNLRQEQYYSEKYQKREHIKLLIQKLTDVAEECQNNQLKKLKEICEKEKKELKKKMDKKRQEKITEAKSKDKSQMEEEKTEMIRSYIQEVVQYIKRLEEAQSKRQEKLVEKHKEIRQQILDEKPKLQVELEQEYQDKFKRLPLEILEFVQEAMKGKISEDSNHGSAPLSLSSDPGKVNHKTPSSEELGGDIPGKEFDTPL
# What was measured:
# P2Y1 receptor = target: T1, P2Y1 receptor (Homo sapiens, UniProt P47900); assay: steady state GTP hydrolysis by purified P2Y1-R reconstituted with Gα11 and Gβ1γ2 in proteoliposomes; format: biochemical
# T1 construct: hexahistidine; made in house; host or cells: baculovirus / Sf9 insect cells are named only as a preferred embodiment
# Experimental: Purified human P2Y1-R, Gα11, and Gβ1y2 were reconstituted in phospholipid vesicles.
# In a glass tube, the following lipid solutions, which are made by solubilizing the lipids in chloroform, are combined: 11 μl PE (10 mg/ml), 7 μl PS (10 mg/ml), 4 μl cholesteryl hemisuccinate (2 mM). The mixture is dried under a stream of N2 or argon to prevent oxidation. The lipids are then dissolved in a buffer containing deoxycholate at 0.4% and sonicated to ensure complete solubilization. Proteins are added sequentially: 50 pmol of the appropriate G protein α subunit, 150 pmol Gβγ and 15 pmol of P2Y receptor. The mixture is passed over a sizing column to isolate the vesicles from the single components and the detergent. Isolated vesicles can then used for the GTP hydrolysis assays for which they can be diluted depending on their quality.
# (§1) In a steady state embodiment of the present invention, vesicles are combined with agonists, GAP proteins γ-[^32P] labeled GTP, all in an appropriate buffer system. The assay is then incubated at between 20° C. and 30° C. for various times. P2Y receptor-promoted activity is measured as released ^32P, which is separated from [γ-^32P]GTP after the assay is halted by transfer to ice and addition of ice cold 5% slurry or activated charcoal in 20 mM phosphoric acid. See Biddlecome et al., J. Biol. Chem. 271: 7999-8007.
# The P2Y1 receptor was expressed, purified and reconstituted into vesicles as described herein. GTP hydrolysis was measured by incubation of vesicles with 2 μM [γ^32P]GTP and quantitation of released [^32P]Pi.
# [1] = test system: P2Y1 receptor/Gαq/β1γ2 vesicles; assay: promotion of 2MeSADP-stimulated GTPase activity of P2Y1 receptor/Gαq/β1γ2 vesicles; format: biochemical; details: 1 μM 2MeSADP, FIG. 4 and 5
# Experimental: Purified P2Y1-R was reconstituted with Gαq and Gβ1y2.
# FIG. 5 is a line graph depicting promotion of 2MeSADP-stimulated GTP hydrolysis by phospholipase C-β1. P2Y1-R was reconstituted with Gαq and Gβ1y2.
# as §1
# The selectivity of the P2Y1 receptor for coupling to various G proteins, and the selectivity of RGS proteins and phospholipase C-β isoenzymes for promoting GTPase activities were studied.
# T1 sequence (P47900 whole entry): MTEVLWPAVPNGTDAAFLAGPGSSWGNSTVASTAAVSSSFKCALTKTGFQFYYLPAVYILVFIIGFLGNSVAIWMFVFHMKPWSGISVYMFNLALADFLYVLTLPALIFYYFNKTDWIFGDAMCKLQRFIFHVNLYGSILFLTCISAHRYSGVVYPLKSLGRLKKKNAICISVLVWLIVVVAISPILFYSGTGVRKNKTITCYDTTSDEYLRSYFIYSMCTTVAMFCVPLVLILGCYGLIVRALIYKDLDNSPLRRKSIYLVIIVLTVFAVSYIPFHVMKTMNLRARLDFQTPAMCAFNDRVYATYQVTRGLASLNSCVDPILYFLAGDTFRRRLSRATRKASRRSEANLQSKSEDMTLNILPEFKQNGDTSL
molecule,measurement,setting,value
"Nc1ncnc2c1ncn2[C@@H]1O[C@H](COP(=O)(O)OP(=O)(O)OP(=O)(O)O)[C@@H](O)[C@H]1O [ATP, adenosine 5′-triphosphate]",agonist versus antagonist nature at the P2Y1 receptor,P2Y1 receptor; in the absence of receptor reserve,pure antagonist
2-methylthioadenosine 5′-diphosphate [2MeSADP],stimulation of GTPase activity over basal,"P2Y1 receptor; agonist together with RGS4, FIG. 2A",up to 100 fold
same,EC70 concentration of agonist,P2Y1 receptor; concentration used to identify antagonists,approximately 50 nM
same,hydrolysis of GTP on addition of agonist,"P2Y1 receptor; in the presence of RGS4, FIG. 1",marked increase
B1,promotion of GTPase activity (potency and efficacy in words),[1],potent and efficacious stimulator
